# Measured values taken from article PMC10535741, “Styrylpyridinium Derivatives for Fluorescent Cell Imaging” (Pharmaceuticals, 2023).
# Test system: C6 (rat glioma)
# Assay: in vitro
# Assay type: cell-based
# Excerpt: For selected compounds, 6a–6f, we performed a determination of the cytotoxicity in a wider variety of cancer and non-cancerous cell lines (see Table S2, Supplementary Materials) in order to learn the characteristic features of selectivity or the similarity of biological properties.
# The HT-1080 (human connective tissue fibrosarcoma, ATCC® CCL-121™), MH-22A (mouse hepatocarcinoma, ECACC Cat. No. 96121721), A-549 (human lung carcinoma, ATCC® CCL-185™), NIH3T3 (Swiss Albino mouse embryo fibroblast, ECACC Cat. No. 93061524), Hek293 (human embryonic kidney, ATCC® CRL-1573™), BHK-21 (Syrian hamster kidney, ATCC® CCL-10™), A-431 (human epidermoid carcinoma, ATCC® CRL-1555™), Saos-2 (human osteosarcoma, ATCC® HTB-85™), HeLa (human epitheloid cervix carcinoma, ATCC® CCL-2™), U937 (human myeloid leukaemia, ATCC® CRL-1593.2™), C6 (rat glioma, ATCC® CCL-107™), and B16-F10 (murine melanoma, ATCC® CRL-6475™) cell lines were obtained from the American Type Culture Collection (ATCC) and European Collection of Authenticated Cell Cultures (ECACC).
# HT-1080, MH-22A, A-549, NIH3T3, BHK-21, A-431, HeLa, and B16-F10 cells were cultured in Dulbecco’s Modified Eagle’s Medium (DMEM) with 2 mM glutamine and 10% foetal bovine serum (FBS). Hek293 cells were cultured in Eagle’s Minimum Essential Medium with 10% foetal bovine serum. U937 cells were cultured in RPMI-1640 Medium with 2 mM glutamine and 10% foetal bovine serum. C6 cells were cultured in Ham’s F12 Medium with 2 mM glutamine and 10% foetal bovine serum. Saos-2 cells were cultured in McCoy’s 5a Medium with 2 mM glutamine and 10% foetal bovine serum. The cells were incubated at 37 °C with 5% CO2, 95% air, and complete humidity. Once ~90% confluence was reached, they were detached using 0.05% trypsin/EDTA and counted. The cells were plated at optimally determined densities for the logarithmic phase of growth. These cells were then suspended at a concentration of 4000 cells/well for HT-1080, MH-22A, A-549, NIH3T3, BHK-21, A-431, HeLa, B16-F10, Hek293, and Saos-2 cells and a concentration of 9000 cells/well for U937, C6, Hek293, and GM08402 cells and added onto a 96-well plate. For background absorption, some wells remained cell free, i.e., as a blank control. Cells were incubated for 72 h at 37 °C and 5% CO2 where they were exposed to a media containing serial dilutions of the investigated compounds (n = 3). Cell viability was measured using the 3-(4,5-dimethylthiazol-2-yl)-2,5-diphenyl-tetrazolium bromide (MTT) assay. In brief, after incubating with compounds, the culture medium was removed and fresh medium with 0.2 mg/mL MTT was added to each well of the plate. After incubation (3 h, 37 °C, 5% CO2), the medium with MTT solution was removed and replaced with 200 µL DMSO and 25 µL Sorenson’s glycine buffer (glycine 0.1 M, NaCl 0.1 M, pH: 10.5 with 0.1 M NaOH). The plate was shaken for 15 min at room temperature and the optical density (OD) of the wells was determined using a multichannel spectrophotometer (Thermo Scientific Multiskan EX) at 540 nm. The quantity of the control cells was taken in calculations as 100%. The IC50 value was calculated using the program Graph Pad Prism® 3.0. […]
smiles,measurement,value
CCCCCCCCCCCCCCCC[n+]1ccc(C=Cc2cc(OC)c(OC)c(OC)c2)cc1.[Br-] [Compound 6b],Cytotoxicity IC50 C6,1.23 µg/mL
